Assay results published in US20220009920A1 (GB005, Inc., priority 2020, published 2022).

Key:
Experiment in all cases: Large panel kinase profiling
Format in all cases: biochemical
Settings in all cases: 1 μM test article, 1 mM ATP
IRAK1 = IRAK1 (Homo sapiens, UniProt P51617)
Method in brief: (§1)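 One compound concentration (1 μM) was screened against each kinase at 1 mM ATP using PhosphoSens CSox-Sensor detection, at 30° C., with fluorescence read every 1 min (Ex 360 nm/Em 485 nm).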

PRKACG = PRKACG (Homo sapiens, UniProt P22612)
PRKACG, sequence (P22612 whole entry, species assumed): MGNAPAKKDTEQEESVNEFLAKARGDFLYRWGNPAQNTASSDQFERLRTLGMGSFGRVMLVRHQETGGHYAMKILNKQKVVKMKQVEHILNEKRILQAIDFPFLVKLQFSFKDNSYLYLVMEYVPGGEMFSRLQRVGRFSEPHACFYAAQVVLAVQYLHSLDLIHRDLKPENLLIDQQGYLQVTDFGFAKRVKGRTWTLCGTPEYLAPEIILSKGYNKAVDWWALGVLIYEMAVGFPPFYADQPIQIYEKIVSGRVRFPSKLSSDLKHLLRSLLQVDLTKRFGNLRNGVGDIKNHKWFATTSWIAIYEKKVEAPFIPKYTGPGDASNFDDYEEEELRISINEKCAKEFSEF
Method in brief: as §1

MARK4 = molecular target: T1, MARK4 (Homo sapiens, UniProt Q96L34)
T1 construct: AssayQuant Technologies, Inc. (assay service)
T1 sequence (Q96L34 1-752): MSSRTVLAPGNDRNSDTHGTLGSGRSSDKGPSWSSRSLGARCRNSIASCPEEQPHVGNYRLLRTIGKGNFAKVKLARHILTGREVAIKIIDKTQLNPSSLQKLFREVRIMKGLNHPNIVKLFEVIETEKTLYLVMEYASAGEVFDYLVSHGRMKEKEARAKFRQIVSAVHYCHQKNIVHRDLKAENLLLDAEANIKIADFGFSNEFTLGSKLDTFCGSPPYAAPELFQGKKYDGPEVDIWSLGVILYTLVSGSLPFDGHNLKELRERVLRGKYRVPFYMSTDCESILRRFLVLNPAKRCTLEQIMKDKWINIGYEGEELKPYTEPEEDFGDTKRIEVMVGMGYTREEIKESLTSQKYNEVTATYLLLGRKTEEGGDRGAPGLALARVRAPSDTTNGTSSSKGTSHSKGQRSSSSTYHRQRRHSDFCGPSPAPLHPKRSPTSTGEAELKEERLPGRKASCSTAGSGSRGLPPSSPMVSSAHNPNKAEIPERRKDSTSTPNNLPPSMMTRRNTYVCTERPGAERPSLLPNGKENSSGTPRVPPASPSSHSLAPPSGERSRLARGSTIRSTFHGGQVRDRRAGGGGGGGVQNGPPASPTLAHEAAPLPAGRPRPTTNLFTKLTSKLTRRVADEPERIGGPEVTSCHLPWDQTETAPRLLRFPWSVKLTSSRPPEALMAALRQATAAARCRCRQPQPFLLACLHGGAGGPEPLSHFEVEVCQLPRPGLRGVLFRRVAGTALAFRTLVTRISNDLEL
Method in brief: as §1

MYLK/MLCK = molecular target: T2, MYLK/MLCK (Homo sapiens, UniProt Q15746)
T2 construct: AssayQuant Technologies, Inc. (assay service)
Method in brief: as §1

ERN2 = ERN2 (Homo sapiens, UniProt Q76MJ5)
ERN2, sequence (Q76MJ5 35-926, species assumed): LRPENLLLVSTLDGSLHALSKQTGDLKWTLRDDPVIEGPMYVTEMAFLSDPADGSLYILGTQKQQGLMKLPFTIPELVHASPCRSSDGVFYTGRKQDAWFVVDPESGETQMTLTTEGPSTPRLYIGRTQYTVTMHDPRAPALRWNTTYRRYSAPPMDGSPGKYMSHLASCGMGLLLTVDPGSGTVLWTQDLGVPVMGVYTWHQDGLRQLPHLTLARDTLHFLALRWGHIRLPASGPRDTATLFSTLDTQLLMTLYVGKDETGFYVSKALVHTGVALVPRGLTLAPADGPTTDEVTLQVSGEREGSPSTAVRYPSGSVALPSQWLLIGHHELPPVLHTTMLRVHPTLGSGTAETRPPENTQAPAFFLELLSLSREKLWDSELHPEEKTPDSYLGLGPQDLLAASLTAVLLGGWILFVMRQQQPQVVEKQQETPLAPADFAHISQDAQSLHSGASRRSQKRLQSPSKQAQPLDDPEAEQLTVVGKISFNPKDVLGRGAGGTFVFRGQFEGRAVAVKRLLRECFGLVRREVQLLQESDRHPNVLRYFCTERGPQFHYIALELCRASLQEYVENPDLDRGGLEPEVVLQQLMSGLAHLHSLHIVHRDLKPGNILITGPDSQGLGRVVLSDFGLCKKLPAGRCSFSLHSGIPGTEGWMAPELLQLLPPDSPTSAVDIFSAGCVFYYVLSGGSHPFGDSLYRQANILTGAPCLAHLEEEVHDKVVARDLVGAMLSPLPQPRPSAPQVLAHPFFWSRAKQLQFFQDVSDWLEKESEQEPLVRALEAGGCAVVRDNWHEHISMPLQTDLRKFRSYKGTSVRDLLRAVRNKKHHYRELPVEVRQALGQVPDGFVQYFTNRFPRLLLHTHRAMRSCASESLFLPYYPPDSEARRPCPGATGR
Method in brief: as §1

LYNB = LYNB (Homo sapiens, UniProt P07948)
Method in brief: as §1

CHEK2/CHK2 = molecular target: T3, CHEK2/CHK2 (Homo sapiens, UniProt O96017)
T3 construct: AssayQuant Technologies, Inc. (ran the panel)
T3 sequence (O96017 whole entry): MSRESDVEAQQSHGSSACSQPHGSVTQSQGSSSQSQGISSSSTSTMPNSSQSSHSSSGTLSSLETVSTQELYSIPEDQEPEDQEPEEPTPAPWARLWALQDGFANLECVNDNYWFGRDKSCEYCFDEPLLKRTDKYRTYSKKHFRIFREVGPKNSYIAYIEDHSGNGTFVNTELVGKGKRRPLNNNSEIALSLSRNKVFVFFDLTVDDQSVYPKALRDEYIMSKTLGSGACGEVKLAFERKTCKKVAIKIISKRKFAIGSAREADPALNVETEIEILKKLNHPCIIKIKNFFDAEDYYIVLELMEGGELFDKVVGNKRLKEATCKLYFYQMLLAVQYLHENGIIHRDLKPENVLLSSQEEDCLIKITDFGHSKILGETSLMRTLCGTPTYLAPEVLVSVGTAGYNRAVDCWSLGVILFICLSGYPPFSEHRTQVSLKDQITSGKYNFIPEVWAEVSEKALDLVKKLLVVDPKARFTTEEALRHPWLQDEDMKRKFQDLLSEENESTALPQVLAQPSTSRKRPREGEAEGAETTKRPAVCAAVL
Method in brief: as §1

PRKDC/DNA-PK = PRKDC/DNA-PK (Homo sapiens, UniProt P78527)
Method in brief: as §1

CAMK2A = CAMK2A (Homo sapiens, UniProt Q9UQM7)
Method in brief: as §1

GRK1 = molecular target: T4, GRK1 (Homo sapiens, UniProt Q15835)
T4 construct: AssayQuant Technologies, Inc. (service provider)
T4 sequence (Q15835 1-563): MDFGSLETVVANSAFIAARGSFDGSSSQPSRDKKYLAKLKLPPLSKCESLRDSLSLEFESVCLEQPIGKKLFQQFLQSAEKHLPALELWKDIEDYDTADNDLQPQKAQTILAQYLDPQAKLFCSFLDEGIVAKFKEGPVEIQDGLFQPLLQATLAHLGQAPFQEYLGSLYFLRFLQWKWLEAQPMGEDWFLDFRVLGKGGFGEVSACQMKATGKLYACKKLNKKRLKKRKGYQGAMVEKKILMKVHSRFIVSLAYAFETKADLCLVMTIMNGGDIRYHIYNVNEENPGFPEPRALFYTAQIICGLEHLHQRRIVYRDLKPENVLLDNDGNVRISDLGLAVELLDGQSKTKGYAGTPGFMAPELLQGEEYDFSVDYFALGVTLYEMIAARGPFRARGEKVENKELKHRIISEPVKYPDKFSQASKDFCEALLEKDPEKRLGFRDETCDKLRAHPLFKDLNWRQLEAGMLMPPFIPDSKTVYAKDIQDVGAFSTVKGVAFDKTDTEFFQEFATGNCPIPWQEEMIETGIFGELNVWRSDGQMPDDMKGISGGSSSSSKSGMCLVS
Method in brief: as §1

FER = FER (Homo sapiens, UniProt P16591)
FER, sequence (P16591 whole entry, species assumed): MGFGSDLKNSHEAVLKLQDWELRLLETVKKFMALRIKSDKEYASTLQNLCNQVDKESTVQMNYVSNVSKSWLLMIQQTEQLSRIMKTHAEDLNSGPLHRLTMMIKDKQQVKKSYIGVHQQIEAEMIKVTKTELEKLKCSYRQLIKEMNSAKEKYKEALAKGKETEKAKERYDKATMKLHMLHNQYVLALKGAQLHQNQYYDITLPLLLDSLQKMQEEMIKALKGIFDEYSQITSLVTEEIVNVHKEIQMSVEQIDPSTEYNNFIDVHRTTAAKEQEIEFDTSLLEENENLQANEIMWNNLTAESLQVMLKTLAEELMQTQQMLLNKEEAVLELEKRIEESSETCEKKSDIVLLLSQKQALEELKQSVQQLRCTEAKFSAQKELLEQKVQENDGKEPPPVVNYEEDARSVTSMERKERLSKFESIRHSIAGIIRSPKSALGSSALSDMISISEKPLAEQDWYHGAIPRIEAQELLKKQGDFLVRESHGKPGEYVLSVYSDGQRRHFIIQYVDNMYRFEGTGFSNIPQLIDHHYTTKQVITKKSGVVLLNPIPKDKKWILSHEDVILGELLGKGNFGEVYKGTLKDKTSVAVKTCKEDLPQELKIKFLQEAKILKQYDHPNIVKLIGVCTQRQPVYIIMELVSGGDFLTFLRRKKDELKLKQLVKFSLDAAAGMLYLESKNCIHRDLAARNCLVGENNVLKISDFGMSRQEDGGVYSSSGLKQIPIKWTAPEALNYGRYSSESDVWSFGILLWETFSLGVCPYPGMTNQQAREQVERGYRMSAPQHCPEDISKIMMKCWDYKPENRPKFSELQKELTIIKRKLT
Method in brief: as §1

CDK5/P25 = molecular target: T5, CDK5/P25 (Homo sapiens, UniProt Q00535)
T5 construct: AssayQuant Technologies, Inc. (ran the panel)
T5 sequence (Q00535 whole entry, species assumed): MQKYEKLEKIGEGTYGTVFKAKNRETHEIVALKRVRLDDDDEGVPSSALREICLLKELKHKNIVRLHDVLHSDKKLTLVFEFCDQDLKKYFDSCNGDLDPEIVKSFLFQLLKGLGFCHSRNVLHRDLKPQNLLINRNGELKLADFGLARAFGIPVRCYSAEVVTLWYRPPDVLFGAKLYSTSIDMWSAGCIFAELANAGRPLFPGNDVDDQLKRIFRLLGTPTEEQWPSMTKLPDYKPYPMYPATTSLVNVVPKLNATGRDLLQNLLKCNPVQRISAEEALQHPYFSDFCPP
T5 sequence (Q15078 99-307 partner limits assumed, species assumed): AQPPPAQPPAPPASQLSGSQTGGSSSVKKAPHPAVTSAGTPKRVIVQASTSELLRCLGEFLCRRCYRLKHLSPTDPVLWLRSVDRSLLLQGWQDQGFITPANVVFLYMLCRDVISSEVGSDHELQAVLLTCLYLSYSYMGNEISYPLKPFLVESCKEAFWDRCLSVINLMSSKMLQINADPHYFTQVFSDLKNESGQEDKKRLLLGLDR
Method in brief: as §1

CSNK1A1/CK1A1 = molecular target: T6, CSNK1A1/CK1A1 (Homo sapiens, UniProt P48729)
T6 construct: AssayQuant Technologies, Inc. (service laboratory)
T6 sequence (P48729 whole entry): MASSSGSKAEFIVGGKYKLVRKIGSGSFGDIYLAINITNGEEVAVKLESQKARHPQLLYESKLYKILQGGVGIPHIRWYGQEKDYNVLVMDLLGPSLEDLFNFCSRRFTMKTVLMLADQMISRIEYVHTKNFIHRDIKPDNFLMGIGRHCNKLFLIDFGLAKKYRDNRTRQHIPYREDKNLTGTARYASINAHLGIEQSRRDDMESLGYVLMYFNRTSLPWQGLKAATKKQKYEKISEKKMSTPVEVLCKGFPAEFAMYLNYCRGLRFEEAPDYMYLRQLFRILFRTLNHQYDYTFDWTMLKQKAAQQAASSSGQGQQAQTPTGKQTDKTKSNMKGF
Method in brief: as §1

AAK1 = AAK1 (Homo sapiens, UniProt Q2M2I8)
AAK1, sequence (Q2M2I8 whole entry): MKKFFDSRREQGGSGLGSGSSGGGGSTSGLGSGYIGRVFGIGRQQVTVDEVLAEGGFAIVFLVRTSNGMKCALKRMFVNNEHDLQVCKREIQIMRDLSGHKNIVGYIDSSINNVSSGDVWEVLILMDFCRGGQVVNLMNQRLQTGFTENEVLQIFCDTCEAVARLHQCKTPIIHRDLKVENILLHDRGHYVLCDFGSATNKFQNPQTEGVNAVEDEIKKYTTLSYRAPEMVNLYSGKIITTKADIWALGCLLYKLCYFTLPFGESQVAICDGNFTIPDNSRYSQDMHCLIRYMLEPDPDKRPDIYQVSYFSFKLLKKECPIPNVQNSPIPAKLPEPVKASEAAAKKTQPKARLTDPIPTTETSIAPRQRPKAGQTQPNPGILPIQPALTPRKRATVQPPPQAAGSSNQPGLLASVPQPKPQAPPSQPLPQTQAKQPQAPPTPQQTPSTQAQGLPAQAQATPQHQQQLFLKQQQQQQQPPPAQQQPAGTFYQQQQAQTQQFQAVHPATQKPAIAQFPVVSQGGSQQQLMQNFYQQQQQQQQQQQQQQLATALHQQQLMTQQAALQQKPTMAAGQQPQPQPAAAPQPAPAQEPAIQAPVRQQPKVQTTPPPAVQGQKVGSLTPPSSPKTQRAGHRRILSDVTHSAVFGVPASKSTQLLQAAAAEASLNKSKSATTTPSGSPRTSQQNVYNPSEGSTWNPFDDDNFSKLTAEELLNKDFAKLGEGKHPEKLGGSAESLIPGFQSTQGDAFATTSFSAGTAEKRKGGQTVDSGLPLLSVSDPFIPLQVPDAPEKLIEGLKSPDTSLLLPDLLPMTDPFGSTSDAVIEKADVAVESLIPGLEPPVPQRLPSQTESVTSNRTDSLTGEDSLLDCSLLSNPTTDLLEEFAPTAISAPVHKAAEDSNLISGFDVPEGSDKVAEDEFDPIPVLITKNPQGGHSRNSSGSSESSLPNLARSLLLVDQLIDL
Method in brief: as §1

CSK = molecular target: T7, CSK (Homo sapiens, UniProt P41240)
T7 construct: AssayQuant Technologies, Inc. (service laboratory)
T7 sequence (P41240 whole entry, species assumed): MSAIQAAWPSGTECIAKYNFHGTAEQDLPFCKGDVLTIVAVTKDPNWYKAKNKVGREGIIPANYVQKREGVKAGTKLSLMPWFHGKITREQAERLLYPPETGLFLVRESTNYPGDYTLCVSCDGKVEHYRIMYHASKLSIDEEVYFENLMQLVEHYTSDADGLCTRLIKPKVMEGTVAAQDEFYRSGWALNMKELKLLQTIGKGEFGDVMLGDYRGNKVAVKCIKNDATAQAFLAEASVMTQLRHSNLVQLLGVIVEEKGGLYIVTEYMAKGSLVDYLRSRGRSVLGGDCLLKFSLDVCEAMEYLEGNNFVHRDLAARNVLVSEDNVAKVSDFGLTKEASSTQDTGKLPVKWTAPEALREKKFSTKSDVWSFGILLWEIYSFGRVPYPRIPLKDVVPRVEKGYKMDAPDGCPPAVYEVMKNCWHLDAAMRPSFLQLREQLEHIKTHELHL
Method in brief: as §1

Row | SMILES | inhibition at 1 µM (IRAK1) | inhibition at 1 µM (PRKACG) | inhibition at 1 µM (MARK4) | inhibition at 1 µM (MYLK/MLCK) | inhibition at 1 µM (ERN2) | inhibition at 1 µM (LYNB) | inhibition at 1 µM (CHEK2/CHK2) | inhibition at 1 µM (PRKDC/DNA-PK) | inhibition at 1 µM (CAMK2A) | inhibition at 1 µM (GRK1) | inhibition at 1 µM (FER) | inhibition at 1 µM (CDK5/P25) | inhibition at 1 µM (CSNK1A1/CK1A1) | inhibition at 1 µM (AAK1) | inhibition at 1 µM (CSK)
1 | C=CC(=O)N1CCCC(c2c(F)cc(C(N)=O)c3[nH]c4c(c23)CCCCC4)C1 (single isomer, unassigned) [Compound 5-6] | -28.6% | 4.2% | 8.1% | 19.7% | -8% | 8.9% | 0.6% | -40.6% | 4.9% | 16.4% | 32% | -11.1% | 9.6% | -20.3% | -9.4%
2 | C=CC(=O)N1CCC[C@@H](c2c(F)cc(C(N)=O)c3[nH]c4c(c23)CCC4)C1 [Compound 10-2, (S)-8-(1-acryloylpiperidin-3-yl)-7-fluoro-1,2,3,4-tetrahydrocyclo-penta[b]indole-5-carboxamide] | 7.8% | -19.2% | 1.7% | -27.4% | -7.1% | 23.2% | -9.2% | 14.6% | 14.7% | -1.4% | 29.3% | 1.6% | -2.8% | -14.3% | -8.5%
3 | C=CC(=O)N1CCC[C@@H](c2c(F)cc(C(N)=O)c3[nH]c4c(c23)CC2(CC4)CC2)C1 [Compound 6-2, (S)-5-(1-acryloylpiperidin-3-yl)-6-fluoro-1,2,4,9-tetrahydrospiro[carbazole-3,1′-cyclopropane]-8-carboxamide] | 5.6% | -27.2% | -10.2% | -24% | -14.6% | 28.9% | -14.1% | 35% | 35.8% | -46.1% | 2.1% | -13% | 11.2% | -15.7% | -6.4%
